This note sets out measurements from US8637501B2, “Azinone-substituted azepino[b]indole and pyrido-pyrrolo-azepine MCH-1 antagonists, methods of making, and use thereof” (Albany Molecular Research, Inc., priority 2009, dated 2014).

Molecules are shown by their SMILES. Structures can show the parent of a compound that is named as a salt.

Broadly, the Ki is the equilibrium dissociation constant of an inhibitor or competing ligand from its target.

In the assay the target is human MCH-1 receptor (Homo sapiens (Human), UniProt Q99705). Description: Binding Assay for Human Melanin-Concentrating Hormone (MCH-1) Receptor. To be noted: radioligand displacement, membranes from CHO-K1 cells expressing human MCH-1 receptor; Ki from IC50 by Cheng Prusoff equation; read-out: MCH1 Ki. The procedure:
Binding Assay for Human Melanin-Concentrating Hormone (MCH-1) Receptor
Evaluation of the affinity of compounds for the human MCH-1 receptor was accomplished using 4-(3,4,5-tritritiumbenzyloxy)-1-(1-(2-(pyrrolidin-1-yl)ethyl)-1H-indazol-5-yl)pyridin-2(1H)-one and membranes prepared from stable CHO-K1 cells expressing the human MCH-1 receptor obtained from Euroscreen (Batch 1138). Cell membrane homogenates (8.92 μg protein) were incubated for 60 min at 25° C. with 1.4 nM of the [^3H]-labeled compound in the absence or presence of the test compound in 50 mM Tris-HCl buffer, pH 7.4. Nonspecific binding was determined in the presence of 50 μM 1-(5-(4-cyanophenyl)bicyclo[3.1.0]hexan-2-yl)-3-(4-fluoro-3-(trifluoromethyl)phenyl)-1-(3-(4-methylpiperazin-1-yl)propyl)urea. Following incubation, the samples were filtered rapidly under vacuum through Skatron 11731 filters, pre-soaked in 0.5% polyethylenimine, and washed with ice-cold 50 mM Tris-HCl buffer, pH 7.4, (wash setting 9,9,0) using a Skatron cell harvester. The filters were counted for radioactivity in a liquid scintillation counter (Tri-Carb 2100TR, Packard) using a scintillation cocktail (Ultima Gold MV, Perkin Elmer).
The results are expressed as a percent inhibition of the control radioligand specific binding. The IC50 value (concentration causing a half-maximal inhibition of control specific binding) and Hill coefficient (nH) were determined by non-linear regression analysis of the competition curve using Hill equation curve fitting. The inhibition constant (Ki) was calculated from the Cheng Prusoff equation: (Ki=IC50/(1+(L/KD)), where L=concentration of radioligand in the assay, and KD=affinity of the radioligand for the receptor.
(In a radioligand displacement assay an active substance lowers the binding of a labelled ligand.)

Chain of human MCH-1 receptor (Q99705 whole entry): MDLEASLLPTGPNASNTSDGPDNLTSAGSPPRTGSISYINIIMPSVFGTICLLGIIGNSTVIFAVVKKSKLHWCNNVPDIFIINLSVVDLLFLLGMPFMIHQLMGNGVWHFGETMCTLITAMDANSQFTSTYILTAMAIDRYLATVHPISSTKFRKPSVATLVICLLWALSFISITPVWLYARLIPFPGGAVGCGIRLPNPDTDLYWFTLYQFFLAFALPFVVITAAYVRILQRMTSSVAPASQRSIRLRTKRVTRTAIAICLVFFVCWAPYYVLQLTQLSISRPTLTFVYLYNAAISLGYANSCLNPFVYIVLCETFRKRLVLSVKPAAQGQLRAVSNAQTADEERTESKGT

For the molecule `Cc1ccc(COc2ccn(-c3ccc4c5c(n(C)c4c3)CCNCC5)c(=O)c2)cn1` [Example 45, 1-(6-Methyl-1,2,3,4,5,6-hexahydroazepino[4,5-b]indol-8-yl)-4-((6-methylpyridin-3-yl)methoxy)pyridin-2(1H)-one dihydrochloride], the Ki was 26 nM.
As for `CC(=O)N1CCc2c(n(C)c3cc(-n4ccc(-c5ccc(C(F)(F)F)nc5)cc4=O)ccc23)CC1` [Example 46, 1-(3-Acetyl-6-methyl-1,2,3,4,5,6-hexahydroazepino[4,5-b]indol-8-yl)-4-(6-(trifluoromethyl)pyridin-3-yl)pyridin-2(1H)-one], the inhibitory constant (Ki) came to 47 nM.
In the case of `Cn1c2c(c3ccc(-n4ccc(-c5ccc(C(F)(F)F)cc5)nc4=O)cc31)CCNCC2` [Example 49, 1-(6-Methyl-1,2,3,4,5,6-hexahydroazepino[4,5-b]indol-8-yl)-4-(4-(trifluoromethyl)phenyl)pyrimidin-2(1H)-one hydrochloride] it was 17 nM; in that of `Cn1c2c(c3ccc(-n4ccc(OCc5ccc(Cl)cn5)cc4=O)cc31)CCNCC2` [Example 50, 4-((5-Chloropyridin-2-yl)methoxy)-1-(6-methyl-1,2,3,4,5,6-hexahydroazepino[4,5-b]indol-8-yl)pyridin-2(1H)-one hydrochloride], 7.4 nM; in that of `Cn1c2c(c3ccc(-n4ccc(OCc5ccc(Cl)cc5Cl)cc4=O)cc31)CCNCC2` [Example 51, 4-(2,4-Dichlorobenzyloxy)-1-(6-methyl-1,2,3,4,5,6-hexahydroazepino[4,5-b]indol-8-yl)pyridin-2(1H)-one], 24 nM.
Consider `Cn1c2c(c3ccc(-n4ccc(OCc5ccc(F)cc5F)cc4=O)cc31)CCNCC2` [Example 52, 4-(2,4-Difluorobenzyloxy)-1-(6-methyl-1,2,3,4,5,6-hexahydroazepino[4,5-b]indol-8-yl)pyridin-2(1H)-one hydrochloride], for which the Ki was 7.8 nM.
In the case of `Cn1c2c(c3ccc(N4CCN(CCc5ccc(Cl)cc5)CC4=O)cc31)CCNCC2` [Example 53, 4-(4-Chlorophenethyl)-1-(6-methyl-1,2,3,4,5,6-hexahydroazepino[4,5-b]indol-8-yl)piperazin-2-one dihydrochloride] it was 13 nM; in that of `Cn1c2c(c3ccc(-n4ccc(OCc5ccc(Cl)cc5F)cc4=O)cc31)CCNCC2` [Example 55, 4-(4-Chloro-2-fluorobenzyloxy)-1-(6-methyl-1,2,3,4,5,6-hexahydroazepino[4,5-b]indol-8-yl)pyridin-2(1H)-one hydrochloride], 12 nM.
Take `Cn1c2c(c3ccc(-n4ccc(OCc5ccc(F)cc5)cc4=O)cc31)CCNCC2` [Example 57, 4-(4-Fluorobenzyloxy)-1-(6-methyl-1,2,3,4,5,6-hexahydroazepino[4,5-b]indol-8-yl)pyridin-2(1H)-one hydrochloride]: the Ki is 7.3 nM.
In the case of `Cn1c2c(c3ccc(-n4ccc(-c5ccc(C(F)(F)F)nc5)nc4=O)cc31)CCNCC2` [Example 58, 1-(6-Methyl-1,2,3,4,5,6-hexahydroazepino[4,5-b]indol-8-yl)-4-(6-(trifluoromethyl)pyridin-3-yl)pyrimidin-2(1H)-one hydrochloride] it was 163 nM; in that of `Cn1c2c(c3ccc(N4CCN(CCc5ccccn5)CC4=O)cc31)CNCCC2` [Example 59, 1-(6-Methyl-1,2,3,4,5,6-hexahydroazepino[4,3-b]indol-8-yl)-4-(2-(pyridin-2-yl)ethyl)piperazin-2-one dihydrochloride], 44 nM.
Regarding `Cn1c2c(c3ccc(-n4ncc(OCc5ccc(C(F)(F)F)nc5)cc4=O)cc31)CNCCC2` [Example 60, 2-(6-Methyl-1,2,3,4,5,6-hexahydroazepino[4,3-b]indol-8-yl)-5-((6-(trifluoromethyl)pyridin-3-yl)methoxy)pyridazin-3(2H)-one hydrochloride], the Ki amounted to 21 nM.
In the case of `Cn1c2c(c3ccc(-n4ccc(OCc5ccc(Cl)cc5Cl)cc4=O)cc31)CNCCC2` [Example 65, 4-(2,4-Dichlorobenzyloxy)-1-(6-methyl-1,2,3,4,5,6-hexahydroazepino[4,3-b]indol-8-yl)pyridin-2(1H)-one hydrochloride] it was 11 nM.
For `CN1CCCc2c(c3ccc(-n4ccc(-c5ccc(C(F)(F)F)nn5)cc4=O)cc3n2C)C1` [Example 69, 1-(2,6-Dimethyl-1,2,3,4,5,6-hexahydroazepino[4,3-b]indol-8-yl)-4-(6-(trifluoromethyl)pyridazin-3-yl)pyridin-2(1H)-one hydrochloride], the Ki worked out at 12 nM.
As to `CN1CCCc2c(c3ccc(-n4ccc(OCc5ccc(F)cn5)cc4=O)cc3n2C)C1` [Example 70, 1-(2,6-Dimethyl-1,2,3,4,5,6-hexahydroazepino[4,3-b]indol-8-yl)-4-((5-fluoropyridin-2-yl)methoxy)pyridin-2(1H)-one hydrochloride], the Ki stood at 8.8 nM.
In the case of `CN1CCCc2c(c3ccc(-n4ccc(OCc5ccc(C(F)(F)F)nc5)cc4=O)cc3n2C)C1` [Example 71, 1-(2,6-Dimethyl-1,2,3,4,5,6-hexahydroazepino[4,3-b]indol-8-yl)-4-((6-(trifluoromethyl)pyridin-3-yl)methoxy)pyridin-2(1H)-one hydrochloride] it was 8.5 nM; in that of `CCN1CCCc2c(c3ccc(-n4ccc(OCc5ccc(F)cn5)cc4=O)cc3n2C)C1` [Example 73, 1-(2-Ethyl-6-methyl-1,2,3,4,5,6-hexahydroazepino[4,3-b]indol-8-yl)-4-((5-fluoropyridin-2-yl)methoxy)pyridin-2(1H)-one hydrochloride], 9.4 nM.
Take `Cn1c2c(c3ccc(-n4ccc(OCc5ccc(F)cc5F)cc4=O)nc31)CCNCC2` [Example 83, 4-(2,4-Difluorobenzyloxy)-1-(10-methyl-5,6,7,8,9,10-hexahydropyrido[3′,2′:4,5]pyrrolo[2,3-d]azepin-2-yl)pyridin-2(1H)-one hydrochloride]: the Ki turned out to be 13 nM.
As for `Cn1c2c(c3ccc(-n4ccc(OCc5ccc(Cl)cc5F)cc4=O)nc31)CCNCC2` [Example 84, 4-(4-Chloro-2-fluorobenzyloxy)-1-(10-methyl-5,6,7,8,9,10-hexahydropyrido[3′,2′:4,5]pyrrolo[2,3-d]azepin-2-yl)pyridin-2(1H)-one hydrochloride], the Ki was 11 nM.
`Cn1c2c(c3ccc(-n4ccc(OCc5ccc(Cl)cn5)cc4=O)nc31)CCNCC2` [Example 85, 4-((5-Chloropyridin-2-yl)methoxy)-1-(10-methyl-5,6,7,8,9,10-hexahydropyrido[3′,2′:4,5]pyrrolo[2,3-d]azepin-2-yl)pyridin-2(1H)-one hydrochloride]: the Ki amounted to 11 nM.
For `Cn1c2c(c3ccc(-n4ccc(OCc5ccccc5)cc4=O)nc31)CCN(C1CCC1)CC2` [Example 86, 4-(Benzyloxy)-1-(7-cyclobutyl-10-methyl-5,6,7,8,9,10-hexahydropyrido[3′,2′:4,5]pyrrolo[2,3-d]azepin-2-yl)pyridin-2(1H)-one hydrochloride], the Ki came to 16 nM.
For the molecule `CCN1CCc2c(n(C)c3nc(-n4ccc(OCc5ccccc5)cc4=O)ccc23)CC1` [Example 87, 4-(Benzyloxy)-1-(7-ethyl-10-methyl-5,6,7,8,9,10-hexahydropyrido[3′,2′:4,5]pyrrolo[2,3-d]azepin-2-yl)pyridin-2(1H)-one hydrochloride], the Ki was 6.9 nM.
For `CN1CCc2c(n(C)c3nc(-n4ccc(OCc5ccccc5)cc4=O)ccc23)CC1` [Example 88, 4-(Benzyloxy)-1-(7,10-dimethyl-5,6,7,8,9,10-hexahydropyrido[3′,2′:4,5]pyrrolo[2,3-d]azepin-2-yl)pyridin-2(1H)-one hydrochloride], the Ki was determined as 8.7 nM.
Turning to `Cn1c2c(c3ccc(-n4ccc(OCc5ccc(F)cn5)cc4=O)nc31)CNCCC2` [Example 91, 4-((5-Fluoropyridin-2-yl)methoxy)-1-(10-methyl-5,6,7,8,9,10-hexahydropyrido[3′,2′:4,5]pyrrolo[3,2-c]azepin-2-yl)pyridin-2(1H)-one hydrochloride], the Ki came out at 15 nM.
Regarding `Cn1c2c(c3ccc(-n4ccc(-c5ccc(C(F)(F)F)cn5)cc4=O)nc31)CNCCC2` [Example 92, 1-(10-methyl-5,6,7,8,9,10-hexahydropyrido[3′,2′:4,5]pyrrolo[3,2-c]azepin-2-yl)-4-(5-(trifluoromethyl)pyridine-2-yl)pyridin-2(1H)-one hydrochloride], the Ki stood at 20 nM.
On to `Cn1c2c(c3ccc(-n4ccc(OCc5ccc(Cl)cc5Cl)cc4=O)nc31)CNCCC2` [Example 93, 4-(2,4-Dichlorobenzyloxy)-1-(10-methyl-5,6,7,8,9,10-hexahydropyrido[3′,2′:4,5]pyrrolo[3,2-c]azepin-2-yl)pyridin-2(1H)-one hydrochloride], for which the Ki came to 26 nM.
Take `Cn1c2c(c3ccc(-n4ccc(OCc5ccc(F)cc5F)cc4=O)nc31)CNCCC2` [Example 94, 4-(2,4-Difluorobenzyloxy)-1-(10-methyl-5,6,7,8,9,10-hexahydropyrido[3′,2′:4,5]pyrrolo[3,2-c]azepin-2-yl)pyridin-2(1H)-one hydrochloride]: the Ki amounted to 11 nM.
